#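 Dose response: 5 concentrations. Exposure: 48 h. Format: 96-well plates. Endpoint: linear interpolation; highest concentration if not reached. TGI is the concentration that stops growth completely.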
# Experiments:
# Assay in all cases: inhibition of tumour cell growth, NCI panel, 48 h
# HCT-15 colon = test system: HCT-15 colon
# OVCAR-8 ovarian = test system: OVCAR-8 ovarian
# SF-295 CNS = test system: SF-295 CNS
# HL-60(TB) leukemia = test system: HL-60(TB) leukemia
# OVCAR-5 ovarian = test system: OVCAR-5 ovarian
# KM12 colon = test system: KM12 colon
# NCI-H226 lung = test system: NCI-H226 lung
# MOLT-4 leukemia = test system: MOLT-4 leukemia
# RXF 393 renal = test system: RXF 393 renal
# 786-0 renal = test system: 786-0 renal
# SR leukemia = test system: SR leukemia
# MALME-3M melanoma = test system: MALME-3M melanoma
# TK-10 renal = test system: TK-10 renal
# COLO 205 colon = test system: COLO 205 colon
# K-562 leukemia = test system: K-562 leukemia
# UACC-62 melanoma = test system: UACC-62 melanoma
# NCI-H23 lung = test system: NCI-H23 lung
# DMS 114 small cell lung = test system: DMS 114 small cell lung
# SK-MEL-28 melanoma = test system: SK-MEL-28 melanoma
# CCRF-CEM leukemia = test system: CCRF-CEM leukemia
# SK-MEL-2 melanoma = test system: SK-MEL-2 melanoma
# RPMI-8226 leukemia = test system: RPMI-8226 leukemia
# HCC-2998 colon = test system: HCC-2998 colon
# DMS 273 small cell lung = test system: DMS 273 small cell lung
# M14 melanoma = test system: M14 melanoma
# UACC-257 melanoma = test system: UACC-257 melanoma
# SK-OV-3 ovarian = test system: SK-OV-3 ovarian
# NCI-H522 lung = test system: NCI-H522 lung
# SF-268 CNS = test system: SF-268 CNS
# SW-620 colon = test system: SW-620 colon
# RXF-631 renal = test system: RXF-631 renal
# HOP-62 NSCLC = test system: HOP-62 NSCLC
# LOX IMVI melanoma = test system: LOX IMVI melanoma
# A498 renal = test system: A498 renal
# SF-539 CNS = test system: SF-539 CNS
# IGROV1 ovarian = test system: IGROV1 ovarian
# KM20L2 colon = test system: KM20L2 colon
# HT29 colon = test system: HT29 colon
# HCT-116 colon = test system: HCT-116 colon
# SNB-19 CNS = test system: SNB-19 CNS
# CAKI-1 renal = test system: CAKI-1 renal
# EKVX NSCLC = test system: EKVX NSCLC
# OVCAR-4 ovarian = test system: OVCAR-4 ovarian
# UO-31 renal = test system: UO-31 renal
# ACHN renal = test system: ACHN renal
# M19-MEL melanoma = test system: M19-MEL melanoma
# A549 NSCLC = test system: A549 NSCLC
# SN12C renal = test system: SN12C renal
# HOP-92 NSCLC = test system: HOP-92 NSCLC
# NCI-H460 lung = test system: NCI-H460 lung
# SNB-78 CNS = test system: SNB-78 CNS
# OVCAR-3 ovarian = test system: OVCAR-3 ovarian
# U251 CNS = test system: U251 CNS
# SNB-75 CNS = test system: SNB-75 CNS
# LXFL 529 NSCLC = test system: LXFL 529 NSCLC
# SK-MEL-5 melanoma = test system: SK-MEL-5 melanoma
# HOP-18 NSCLC = test system: HOP-18 NSCLC
# XF 498 CNS = test system: XF 498 CNS
# DLD-1 colon = test system: DLD-1 colon
smiles,measurement,setting,value
N#Cc1ccc(C=NC23CC4CC(CC(C4)C2)C3)cc1,TGI,HCT-15 colon,> 100 µM
same,TGI,OVCAR-8 ovarian,> 100 µM
same,TGI,SF-295 CNS,> 100 µM
same,TGI,HL-60(TB) leukemia,53 µM
same,TGI,OVCAR-5 ovarian,> 100 µM
same,TGI,KM12 colon,> 100 µM
same,TGI,NCI-H226 lung,> 100 µM
same,TGI,MOLT-4 leukemia,> 100 µM
same,TGI,RXF 393 renal,> 100 µM
same,TGI,786-0 renal,> 100 µM
same,TGI,SR leukemia,> 100 µM
same,TGI,MALME-3M melanoma,> 100 µM
same,TGI,TK-10 renal,> 100 µM
same,TGI,COLO 205 colon,> 100 µM
same,TGI,K-562 leukemia,> 100 µM
same,TGI,UACC-62 melanoma,> 100 µM
same,TGI,NCI-H23 lung,> 100 µM
same,TGI,DMS 114 small cell lung,> 100 µM
same,TGI,SK-MEL-28 melanoma,> 100 µM
same,TGI,CCRF-CEM leukemia,> 100 µM
same,TGI,SK-MEL-2 melanoma,> 100 µM
same,TGI,RPMI-8226 leukemia,> 100 µM
same,TGI,HCC-2998 colon,> 100 µM
same,TGI,DMS 273 small cell lung,> 100 µM
same,TGI,M14 melanoma,> 100 µM
same,TGI,UACC-257 melanoma,> 100 µM
same,TGI,SK-OV-3 ovarian,> 100 µM
same,TGI,NCI-H522 lung,> 100 µM
same,TGI,SF-268 CNS,> 100 µM
same,TGI,SW-620 colon,> 100 µM
same,TGI,RXF-631 renal,> 100 µM
same,TGI,HOP-62 NSCLC,> 100 µM
same,TGI,LOX IMVI melanoma,> 100 µM
same,TGI,A498 renal,> 100 µM
same,TGI,SF-539 CNS,> 100 µM
same,TGI,IGROV1 ovarian,> 100 µM
same,TGI,KM20L2 colon,> 100 µM
same,TGI,HT29 colon,> 100 µM
same,TGI,HCT-116 colon,> 100 µM
same,TGI,SNB-19 CNS,> 100 µM
same,TGI,CAKI-1 renal,> 100 µM
same,TGI,EKVX NSCLC,> 100 µM
same,TGI,OVCAR-4 ovarian,> 100 µM
same,TGI,UO-31 renal,> 100 µM
same,TGI,ACHN renal,> 100 µM
same,TGI,M19-MEL melanoma,> 100 µM
same,TGI,A549 NSCLC,> 100 µM
same,TGI,SN12C renal,> 100 µM
same,TGI,HOP-92 NSCLC,> 100 µM
same,TGI,NCI-H460 lung,> 100 µM
same,TGI,SNB-78 CNS,> 100 µM
same,TGI,OVCAR-3 ovarian,> 100 µM
same,TGI,U251 CNS,> 100 µM
CC1(C)CC(=O)C(/C(=N/NC(=S)NN)C(=O)Nc2nc3ccc([N+](=O)[O-])cc3s2)C(=O)C1,TGI,HCT-15 colon,> 100 µM
same,TGI,OVCAR-8 ovarian,> 100 µM
same,TGI,SF-295 CNS,> 100 µM
same,TGI,HL-60(TB) leukemia,> 100 µM
same,TGI,OVCAR-5 ovarian,> 100 µM
same,TGI,KM12 colon,> 100 µM
same,TGI,NCI-H226 lung,> 100 µM
same,TGI,MOLT-4 leukemia,> 100 µM
same,TGI,RXF 393 renal,> 100 µM
same,TGI,786-0 renal,> 100 µM
same,TGI,SR leukemia,> 100 µM
same,TGI,MALME-3M melanoma,> 100 µM
same,TGI,TK-10 renal,> 100 µM
same,TGI,COLO 205 colon,> 100 µM
same,TGI,K-562 leukemia,> 100 µM
same,TGI,UACC-62 melanoma,> 100 µM
same,TGI,NCI-H23 lung,> 100 µM
same,TGI,DMS 114 small cell lung,> 100 µM
same,TGI,SK-MEL-28 melanoma,> 100 µM
same,TGI,CCRF-CEM leukemia,> 100 µM
same,TGI,SK-MEL-2 melanoma,> 100 µM
same,TGI,HCC-2998 colon,> 100 µM
same,TGI,M14 melanoma,> 100 µM
same,TGI,SNB-75 CNS,> 100 µM
same,TGI,UACC-257 melanoma,> 100 µM
same,TGI,SK-OV-3 ovarian,> 100 µM
same,TGI,NCI-H522 lung,> 100 µM
same,TGI,SF-268 CNS,> 100 µM
same,TGI,SW-620 colon,> 100 µM
same,TGI,HOP-62 NSCLC,> 100 µM
same,TGI,LOX IMVI melanoma,> 100 µM
same,TGI,A498 renal,> 100 µM
same,TGI,SF-539 CNS,> 100 µM
same,TGI,IGROV1 ovarian,> 100 µM
same,TGI,KM20L2 colon,> 100 µM
same,TGI,HT29 colon,> 100 µM
same,TGI,HCT-116 colon,> 100 µM
same,TGI,SNB-19 CNS,> 100 µM
same,TGI,CAKI-1 renal,> 100 µM
same,TGI,LXFL 529 NSCLC,> 100 µM
same,TGI,EKVX NSCLC,> 100 µM
same,TGI,OVCAR-4 ovarian,> 100 µM
same,TGI,UO-31 renal,> 100 µM
same,TGI,SK-MEL-5 melanoma,> 100 µM
same,TGI,ACHN renal,> 100 µM
same,TGI,HOP-18 NSCLC,> 100 µM
same,TGI,M19-MEL melanoma,> 100 µM
same,TGI,A549 NSCLC,> 100 µM
same,TGI,SN12C renal,> 100 µM
same,TGI,HOP-92 NSCLC,> 100 µM
same,TGI,XF 498 CNS,> 100 µM
same,TGI,DLD-1 colon,> 100 µM
same,TGI,NCI-H460 lung,> 100 µM
same,TGI,SNB-78 CNS,> 100 µM
same,TGI,OVCAR-3 ovarian,> 100 µM
same,TGI,U251 CNS,> 100 µM
